The pIC50 is the negative decadic logarithm of the IC50, by convention in mol/L. Read a high pIC50 as a low IC50. A word on the IC50: it is the concentration needed to halve the response being measured. Read a low IC50 as higher potency.

A value given as a limit tells only on which side of the number the result lay.

The first test concerns ApoB secretion, HepG2 cells. Description: Quantification of the secretion of ApoB (HepG2 cells, immunoprecipitation, scintillation counting). Type of test: cell-based. The settings on record: 24 hours of incubation, listed as 238. As for the experimental part:
C.1. Quantification of the Secretion of ApoB
HepG2 cells were cultured in 24-well plates in Minimal Essential Medium Rega 3 containing 10% fetal calf serum. Rega 3 has the following composition: CaCl2 (264 μg/ml), KCl (400 μg/ml), MgSO4.7H2O (200 μg/ml), NaCl (6800 μg/ml), NaHCO3 (850 μg/ml), NaH2PO4.H2O (158 μg/ml), D-glucose (1000 μg/ml), phenol red (10 μg/ml), L-alanine (8.9 μg/ml), L-arginine HCl (12 μg/ml), L-asparagine.H2O (15 μg/ml), L-aspartic acid (13.3 μg/ml), L-cystine (24 μg/ml), L-glutamic acid (14.7 μg/ml), glycine (7.5 μg/ml), L-histidine.HCl .H2O (42 μg/ml), L-isoleucine (52 μg/ml), L-leucine (52 μg/ml), L-lysine.HCl (72.5 μg/ml), L-methionine (15 μg/ml), L-phenylalanine (32 μg/ml), L-proline (11.5 μg/ml), L-serine (10.5 μg/ml), L-threonine (48 μg/ml), L-tryptophan (10 μg/ml), L-tyrosine (36 μg/ml), L-valine (46 μg/ml), D-Ca pantothenate (1 μg/ml), choline chloride (1 μg/ml), folic acid (1 μg/ml), 1-enositol (2 μg/ml), nicotinamide (1 μg/ml), pyridoxal HCl (1 μg/ml), riboflavin (0.1 μg/ml) and thiamine HCl (1 μg/ml).
At 70% confluency, the medium was changed and the test compound or carrier (dimethylsulfoxide, 0.4% final concentration) was added. After 24 hours of incubation, the medium was transferred to Eppendorf tubes and cleared by centrifugation. A sheep antibody directed against either apo B was added to the supernatant and the mixture was kept at 8° C. for 24 hours. Then, rabbit anti-sheep antibody was added and the immune complex was allowed to precipitate for 24 hours at 8° C. The immunoprecipitate was pelleted by centrifugation for 25 minutes at 1320 g and washed twice with a buffer containing 40 mM 4-morpholinepropanesulfonic acid, 40 mM NaH2PO4, 100 mM NaF, 0.2 mM dithiothreitol, 5 mM ethylenediamine tetraacetic acid, 5 mM ethylenebis (oxyethylenenitrilo) tetraacetic acid, 1% Triton-X-100, 0.5% sodium deoxycholate, 0.1% sodium dodecylsulphate, 0.2 μM leupeptin and 0.2 μM phenylmethylsulphonylfluoride. Radioactivity in the pellet was quantified by liquid scintillation counting.
Resulting IC50 values are enumerated in Table C.1 for a number of compounds No. 1 to No. 123.
For `COC(=O)C(c1ccccc1)C1CCN(c2ccc(NC(=O)c3ccccc3-c3ccc(C(C)(C)C)cc3)cc2)CC1` (centres unmarked) [Co. No. 238], the pIC50 was found to be 7.824.

The same test, now with this note: Homo sapiens, HepG2, 24 h, 24 hours of incubation.
In turn, `CCCNC(=O)C(c1ccccc1)C1CCN(c2ccc(NC(=O)c3ccccc3-c3cc(Cl)cc(Cl)c3)cc2)CC1` (centres unmarked) [Co. No. 97, 3′,5′-dichloro-N-[4-[4-[2-oxo-1-phenyl-2-(propylamino)ethyl]-1-piperidinyl]phenyl]-[1,1′-biphenyl]-2-carboxamide] gave an IC50 of 234 nM.

In the case of `COC(=O)C(c1ccccc1)N1CCN(c2cc(F)c(NC(=O)c3ccccc3-c3ccc(C(F)(F)F)cc3)c(F)c2)CC1` (centres unmarked) [Co. No. 204], the IC50 is 428 nM.

The compound `COC(=O)C(c1cccc(Cl)c1)N1CCN(c2ccc(NC(=O)c3ccccc3-c3ccc(C(F)(F)F)cc3)cc2)CC1` (centres unmarked) [Co. No. 260] had an IC50 of less than 30 nM.

For the compound `C=CCNC(=O)C(c1ccccc1)N1CCN(c2ccc(NC(=O)c3ccccc3-c3ccccc3)cc2)CC1` (centres unmarked) [Co. No. 148], the IC50 was 60.4 nM.

Take `O=C(Nc1ccc(N2CCC(C(C(=O)NCc3ccccc3)c3ccccc3)CC2)cc1)c1ccccc1OCc1ccccc1` (centres unmarked) [Co. No. 8]: half-maximal inhibition (IC50) required 60.1 nM.

As to `CCCOC(=O)C(c1ccccc1)N1CCCN(c2ccc(NC(=O)c3ccccc3-c3ccc(C(F)(F)F)cc3)cc2)CC1` (centres unmarked) [Co. No. 121], the IC50 is 2110 nM.

The compound `COC(=O)C(c1ccc(Cl)cc1Cl)N1CCN(c2ccc(NC(=O)c3ccccc3-c3ccc(C(F)(F)F)cc3)cc2)CC1` (centres unmarked) [Co. No. 259] had an IC50 of 420 nM. This IC50 lies about 5-fold lower than the previous one.

`CCNC(=O)C(c1ccccc1)N1CCN(c2ccc(NC(=O)c3ccccc3-c3ccc(C(F)(F)F)cc3)cc2C)CC1` (centres unmarked) [Co. No. 218] gave an IC50 of less than 30 nM.

In the case of `CCNC(=O)C(c1ccccc1)C1CCN(c2ccc(NC(=O)c3ccccc3-c3cc(Cl)cc(Cl)c3)cc2)CC1` (centres unmarked) [Co. No. 49], half-maximal inhibition (IC50) was put at 236 nM.

Consider `O=C(Nc1ccc(N2CCN(C(C(=O)NCc3ccccc3)c3ccccc3)CC2)cc1)c1ccccc1-c1ccccc1` (centres unmarked) [Co. No. 141], for which the IC50 is 25.1 nM. Against the preceding compound, the IC50 is about 9.4-fold lower.

Turning to `CCNC(=O)C(c1ccccc1)N1CCCN(c2ccc(NC(=O)c3ccccc3-c3ccc(C(F)(F)F)cc3)cc2)CC1` (centres unmarked) [Co. No. 122], 414 nM corresponded to half-maximal inhibition (IC50). Compared with the last compound, the IC50 is about 16-fold higher.

On to `COC(=O)C(c1ccccc1)N1CCN(c2ccc(NC(=O)c3ccccc3-c3ccc(C(F)(F)F)cc3)c(C)c2)CC1` (centres unmarked) [Co. No. 208], for which the IC50 was 7.48 nM.

In the case of `COC(=O)C(c1ccccc1)C1CCN(c2ccc(NC(=O)c3cccc(C)c3-c3ccc(CC(C)C)cc3)cc2)CC1` (centres unmarked) [Co. No. 236], the IC50 is 21.7 nM.

Take `O=C(Nc1ccc(N2CCC(C(C(=O)NCc3ccccc3)c3ccccc3)CC2)cc1)c1ccccc1-c1ccc(F)cc1` (centres unmarked) [Co. No. 102]: the IC50 is 18.5 nM.

In turn, `CC(C)NC(=O)C(c1ccccc1)C1CCN(c2ccc(NC(=O)c3ccccc3COc3ccccc3)cc2)CC1` (centres unmarked) [Co. No. 25] had an IC50 of 287 nM.

On to `O=C(Nc1ccc(C2CCN(C(C(=O)OCCc3ccccc3)c3ccccc3)CC2)cc1)c1ccccc1-c1ccc(C(F)(F)F)cc1` (centres unmarked) [Co. No. 266], for which the midpoint of inhibition, the IC50, lay at 25.6 nM.

`O=C(Nc1ccc(N2CCC(C(C(=O)OCc3ccccc3)c3ccccc3)CC2)cc1)c1ccccc1-c1ccccc1` (centres unmarked) [Co. No. 177] gave an IC50 of 261 nM.

Compound `C=CCOC(=O)C(c1ccccc1)N1CCC(c2ccc(NC(=O)c3ccccc3-c3ccc(C(F)(F)F)cc3)cc2)CC1` (centres unmarked) [Co. No. 152] showed an IC50 of 94.4 nM.

On to `COc1ccc(-c2ccccc2C(=O)Nc2ccc(N3CCC(C(C(=O)Nc4ccccc4)c4ccccc4)CC3)cc2)cc1` (centres unmarked) [Co. No. 116], for which the midpoint of inhibition, the IC50, lay at 385 nM. This IC50 is about 4.1-fold higher than that of the compound before.

Regarding `O=C(Nc1ccc(C2CCN(C(C(=O)Nc3ccccc3)c3ccccc3)CC2)cc1)c1ccccc1-c1ccc(C(F)(F)F)cc1` (centres unmarked) [Co. No. 80], 356 nM corresponded to half-maximal inhibition (IC50).

In turn, `COC(=O)C(c1ccccc1)C1CCN(c2ccc(NC(=O)c3ccccc3-c3ccc(CC(C)C)cc3)cc2)CC1` (centres unmarked) [Co. No. 233] had an IC50 of less than 30 nM.

Turning to `CCCNC(=O)C(c1ccccc1)C1CCN(c2ccc(NC(=O)c3ccccc3-c3cccc(N)c3)cc2)CC1` (centres unmarked) [Co. No. 133], the IC50 was more than 3000 nM.

Take `CC(C)=CCOC(=O)C(c1ccccc1)N1CCC(c2ccc(NC(=O)c3ccccc3-c3ccc(C(F)(F)F)cc3)cc2)CC1` (centres unmarked) [Co. No. 220]: the IC50 was less than 30 nM.

For `O=C(Nc1ccc(C2CCN(C(C(=O)NCc3ccccc3)c3ccccc3)CC2)cc1)c1ccccc1-c1ccc(C(F)(F)F)cc1` (centres unmarked) [Co. No. 79], the half-maximal inhibitory concentration (IC50) was 50 nM. That is a double-digit nanomolar value.

`O=C(Nc1ccc(N2CCC(C(C(=O)Nc3ccccc3)c3ccccc3)CC2)cc1)c1ccccc1COc1ccccc1` (centres unmarked) [Co. No. 32] gave an IC50 of 2390 nM.

`CCNC(=O)C(c1ccccc1)N1CCN(c2ccc(NC(=O)c3ccccc3-c3ccc(C(F)(F)F)cc3)c(F)c2)CC1` (centres unmarked) [Co. No. 219] had an IC50 of 78.5 nM.

Compound `C=CCNC(=O)C(c1ccccc1)N1CC=C(c2ccc(NC(=O)c3ccccc3-c3ccccc3)cc2)CC1` (centres unmarked) [Co. No. 167] showed an IC50 of less than 30 nM.

On to `CCCNC(=O)C(c1ccccc1)C1CCN(c2ccc(NC(=O)c3ccccc3-c3ccccc3OC)cc2)CC1` (centres unmarked) [Co. No. 43], for which the IC50 was 1770 nM.

For `CC(C)NC(=O)C(c1ccccc1)C1CCN(c2ccc(NC(=O)c3cccc4c3-c3ccccc3C4)cc2)CC1` (centres unmarked) [Co. No. 21], 245 nM corresponded to half-maximal inhibition (IC50).

Regarding `CCNC(=O)C(c1ccc(F)cc1)C1CCN(c2ccc(NC(=O)c3ccccc3-c3ccc(C(F)(F)F)cc3)cc2)CC1` (centres unmarked) [Co. No. 256], inhibition was half-maximal at 15.1 nM (IC50). This IC50 is about 16-fold lower than that of the compound before.

The compound `COC(=O)C(c1ccccc1)N1CCN(c2cc(C)c(NC(=O)c3ccccc3-c3ccc(C(F)(F)F)cc3)c(C)c2)CC1` (centres unmarked) [Co. No. 209] had an IC50 of 7.96 nM.

As to `O=C(Nc1ccc(N2CCC(C(C(=O)Nc3ccccc3)c3ccccc3)CC2)cc1)c1ccccc1-c1cccc2ccccc12` (centres unmarked) [Co. No. 137], half-maximal inhibition (IC50) was put at 1770 nM.

`O=C(Nc1ccc(N2CCC(C(C(=O)Nc3ccccc3)c3ccccc3)CC2)cc1)c1ccccc1Oc1ccccc1` (centres unmarked) [Co. No. 34] gave an IC50 of 1550 nM.

With `CCNC(=O)C(c1ccccc1)C1CCN(c2ccc(NC(=O)c3ccccc3-c3ccc(Cl)c(Cl)c3)cc2)CC1` (centres unmarked) [Co. No. 88], the half-inhibitory concentration (IC50) was not above 30 nM.

Regarding `CCNC(=O)C(c1ccccc1)N1CCN(c2ccc(NC(=O)c3c(C)cccc3-c3ccc(C(F)(F)F)cc3)cc2)CC1` (centres unmarked) [Co. No. 197], half-maximal inhibition (IC50) required 16.5 nM.

As for `O=C(Nc1ccc(N2CCC(C(C(=O)NCc3ccccc3)c3ccccc3)CC2)cc1)c1ccccc1-c1ccccc1Cl` (centres unmarked) [Co. No. 103], the IC50 is 73.6 nM.

As to `CCNC(=O)C(c1ccccc1)N1CCN(c2ccc(NC(=O)c3ccc(C)cc3-c3ccc(C(F)(F)F)cc3)cc2)CC1` (centres unmarked) [Co. No. 194], the IC50 was 43 nM.

Compound `COC(=O)C(c1ccccc1)N1CCN(c2ccc(N(C)C(=O)c3ccccc3-c3ccc(C(F)(F)F)cc3)cc2)CC1` (centres unmarked) [Co. No. 183] had an IC50 of 21.6 nM.

`CCCNC(=O)C(c1ccccc1)C1CCN(c2ccc(NC(=O)c3ccccc3OCc3ccccc3)cc2)CC1` (centres unmarked) [Co. No. 18] gave an IC50 of 206 nM.

Regarding `CCOC(=O)C(c1ccccc1)N1CCCN(c2ccc(NC(=O)c3ccccc3-c3ccc(C(F)(F)F)cc3)cc2)CC1` (centres unmarked) [Co. No. 120], 357 nM corresponded to half-maximal inhibition (IC50).

For `CCNC(=O)C(c1ccccc1)C1CCN(c2ccc(NC(=O)c3ccccc3-c3cccc4ccccc34)cc2)CC1` (centres unmarked) [Co. No. 134], the IC50 was 65.3 nM.

`O=C(Nc1ccc(C2CCN(C(C(=O)Nc3ccccc3)c3ccccc3)CC2)cc1)c1ccccc1-c1ccccc1` (centres unmarked) [Co. No. 162] showed an IC50 of 96.6 nM.

Turning to `C=CCNC(=O)C(c1ccccc1)N1CCC(c2ccc(NC(=O)c3ccccc3-c3ccc(C(F)(F)F)cc3)cc2)CC1` (centres unmarked) [Co. No. 71], the half-inhibitory concentration (IC50) is 10.3 nM.

In turn, `C=CCOC(=O)C(c1ccccc1)C1CCN(c2ccc(NC(=O)c3ccccc3-c3ccccc3)cc2)CC1` (centres unmarked) [Co. No. 179] showed an IC50 of 403 nM.

Compound `CCCNC(=O)C(c1ccccc1)C1CCN(c2ccc(NC(=O)c3ccccc3-c3ccccc3Cl)cc2)CC1` (centres unmarked) [Co. No. 45] gave an IC50 not below 3000 nM.

`CCNC(=O)C(c1ccccc1)N1CCN(c2ccc(NC(=O)c3cc(OC)ccc3-c3ccc(C(F)(F)F)cc3)cc2)CC1` (centres unmarked) [Co. No. 195] had an IC50 of 89.7 nM.

As for `CCOC(=O)C(c1ccc(Cl)cc1)N1CCN(c2ccc(NC(=O)c3ccccc3-c3ccc(C(F)(F)F)cc3)cc2)CC1` (centres unmarked) [Co. No. 262], the IC50 was 558 nM.

`O=C(Nc1ccc(N2CCC(C(C(=O)OCCCc3ccccc3)c3ccccc3)CC2)cc1)c1ccccc1-c1ccc(C(F)(F)F)cc1` (centres unmarked) [Co. No. 246] had an IC50 of 173 nM.

Consider `COC(=O)C(c1ccccc1Cl)N1CCN(c2ccc(NC(=O)c3ccccc3-c3ccc(C(F)(F)F)cc3)cc2)CC1` (centres unmarked) [Co. No. 258], for which the IC50 is 139 nM.

(Values after US8354402B2, “Polyarylcarboxamides useful as lipid lowering agents” (Janssen Pharmaceutica N.V., priority 2000, dated 2013).)
